The NIST ThermoML archive (doi:10.1016/j.tca.2006.05.010)

Legend:
[1] = excess molar enthalpy (molar enthalpy of mixing); xn = mol fraction of the nth substance listed; details: 308.15 K, 101 kPa, Liquid, Flow calorimetry
[2] = molar heat capacity at constant pressure; xn = mol fraction of the nth substance listed; details: 308.15 K, 101 kPa, Liquid, Small sample (50 mg) DSC
[3] = 101.33 kPa, Liquid, Vibrating tube method
[4] = molar heat capacity at constant pressure; details: 101.33 kPa, Liquid, Small sample (50 mg) DSC
[5] = refractive index (Na D-line) (dimensionless); details: 101.33 kPa, Liquid, Standard Abbe refractometry

C1COCCO1 [1,4-dioxane] + C[S+](C)[O-]
Details	excess molar enthalpy [kcal/mol]	molar heat capacity at constant pressure [J/K/mol]
[1], x2 = 0.0478	0.0318	–
[1], x2 = 0.0911	0.0531	–
[1], x2 = 0.1308	0.0672	–
[1], x2 = 0.1671	0.0765	–
[1], x2 = 0.2313	0.0872	–
[1], x2 = 0.2863	0.0923	–
[1], x2 = 0.3757	0.0978	–
[1], x2 = 0.4451	0.0997	–
[1], x2 = 0.5462	0.0966	–
[1], x2 = 0.6437	0.0915	–
[1], x2 = 0.7066	0.0851	–
[1], x2 = 0.7831	0.0741	–
[1], x2 = 0.828	0.065	–
[1], x2 = 0.8784	0.0495	–
[1], x2 = 0.9059	0.0399	–
[1], x2 = 0.9353	0.0277	–
[1], x2 = 0.9665	0.0158	–
[2], x2 = 0.0749	–	154.8
[2], x2 = 0.1148	–	155.1
[2], x2 = 0.2112	–	155.5
[2], x2 = 0.313	–	155.4
[2], x2 = 0.4096	–	155.1
[2], x2 = 0.5185	–	154.6
[2], x2 = 0.6108	–	153.9
[2], x2 = 0.6637	–	153.5
[2], x2 = 0.7064	–	153.2
[2], x2 = 0.8128	–	152.5
[2], x2 = 0.8952	–	152.7
[2], x2 = 0.9586	–	153.5

C[S+](C)[O-] [dimethyl sulfoxide]
Details	mass density [kg/m3]	molar heat capacity at constant pressure [J/K/mol]	refractive index
[3], 298.15 K	1095.58	–	–
[3], 308.15 K	1085.5	–	–
[4], 293.15 K	–	151.2	–
[4], 298.15 K	–	152.4	–
[4], 303.15 K	–	153.4	–
[4], 308.15 K	–	154.8	–
[4], 313.15 K	–	155.4	–
[4], 318.15 K	–	156.6	–
[4], 323.15 K	–	157.7	–
[4], 328.15 K	–	157.8	–
[4], 333.15 K	–	158.5	–
[4], 338.15 K	–	159.3	–
[4], 343.15 K	–	159.5	–
[4], 348.15 K	–	160.2	–
[4], 353.15 K	–	160.3	–
[4], 358.15 K	–	161.3	–
[4], 363.15 K	–	161.5	–
[4], 368.15 K	–	161.7	–
[4], 373.15 K	–	162.6	–
[4], 378.15 K	–	163.3	–
[4], 383.15 K	–	164.8	–
[4], 388.15 K	–	166.3	–
[4], 393.15 K	–	168.3	–
[4], 398.15 K	–	169.1	–
[4], 403.15 K	–	170.3	–
[4], 408.15 K	–	170.4	–
[4], 413.15 K	–	170.6	–
[4], 418.15 K	–	171.1	–
[4], 423.15 K	–	171.2	–
[5], 298.15 K	–	–	1.4775
[5], 308.15 K	–	–	1.4729

C1CCOC1 [tetrahydrofuran]
Details	mass density, [3] [kg/m3]	molar heat capacity at constant pressure, [4] [J/K/mol]	refractive index, [5]
288.15 K	–	121.1	–
293.15 K	–	123.8	–
298.15 K	881.9	126.4	1.4048
303.15 K	–	128.5	–
308.15 K	870.99	131.4	1.4002
313.15 K	–	133.2	–
318.15 K	–	135.2	–
323.15 K	–	136.6	–

C1CCOC1 [tetrahydrofuran] + C[S+](C)[O-]
Details	excess molar enthalpy [kcal/mol]	molar heat capacity at constant pressure [J/K/mol]
[1], x2 = 0.0457	0.0509	–
[1], x2 = 0.0875	0.0889	–
[1], x2 = 0.1257	0.117	–
[1], x2 = 0.1608	0.138	–
[1], x2 = 0.2233	0.167	–
[1], x2 = 0.2771	0.183	–
[1], x2 = 0.3651	0.204	–
[1], x2 = 0.4339	0.208	–
[1], x2 = 0.5349	0.209	–
[1], x2 = 0.6332	0.201	–
[1], x2 = 0.697	0.185	–
[1], x2 = 0.7753	0.163	–
[1], x2 = 0.8215	0.141	–
[1], x2 = 0.8735	0.113	–
[1], x2 = 0.902	0.0956	–
[1], x2 = 0.9325	0.0696	–
[1], x2 = 0.965	0.039	–
[2], x2 = 0.0807	–	132.9
[2], x2 = 0.1171	–	133.6
[2], x2 = 0.2353	–	135.9
[2], x2 = 0.3233	–	137.7
[2], x2 = 0.4932	–	141.4
[2], x2 = 0.5284	–	142.3
[2], x2 = 0.5833	–	143.6
[2], x2 = 0.6359	–	144.9
[2], x2 = 0.7298	–	147.2
[2], x2 = 0.8269	–	149.8
[2], x2 = 0.893	–	151.6
[2], x2 = 0.9507	–	153.2

C1CCOCC1 [tetrahydropyran]
Details	mass density [kg/m3]	molar heat capacity at constant pressure [J/K/mol]	refractive index
[3], 298.15 K	879.31	–	–
[3], 308.15 K	868.85	–	–
[4], 288.15 K	–	143.9	–
[4], 293.15 K	–	146.3	–
[4], 298.15 K	–	147.9	–
[4], 303.15 K	–	149.7	–
[4], 308.15 K	–	151.7	–
[4], 313.15 K	–	154.3	–
[4], 318.15 K	–	156.5	–
[4], 323.15 K	–	159.1	–
[4], 328.15 K	–	161.6	–
[4], 333.15 K	–	164.2	–
[5], 298.15 K	–	–	1.4188
[5], 308.15 K	–	–	1.4142

C1CCOCC1 [tetrahydropyran] + C[S+](C)[O-]
Details	excess molar enthalpy [kcal/mol]	molar heat capacity at constant pressure [J/K/mol]
[1], x2 = 0.0543	0.0899	–
[1], x2 = 0.1148	0.16	–
[1], x2 = 0.1469	0.187	–
[1], x2 = 0.1867	0.214	–
[1], x2 = 0.2562	0.243	–
[1], x2 = 0.3146	0.261	–
[1], x2 = 0.4079	0.273	–
[1], x2 = 0.4786	0.278	–
[1], x2 = 0.5708	0.27	–
[1], x2 = 0.6739	0.247	–
[1], x2 = 0.7337	0.226	–
[1], x2 = 0.8051	0.19	–
[1], x2 = 0.8464	0.164	–
[1], x2 = 0.8921	0.121	–
[1], x2 = 0.9168	0.0985	–
[1], x2 = 0.9429	0.0705	–
[1], x2 = 0.9706	0.0375	–
[2], x2 = 0.0834	–	152.1
[2], x2 = 0.1416	–	152.4
[2], x2 = 0.2619	–	152.8
[2], x2 = 0.376	–	153.1
[2], x2 = 0.4572	–	153.5
[2], x2 = 0.5817	–	153.7
[2], x2 = 0.6249	–	153.8
[2], x2 = 0.659	–	153.8
[2], x2 = 0.7619	–	153.9
[2], x2 = 0.8405	–	154
[2], x2 = 0.9268	–	154.2
[2], x2 = 0.952	–	154.3
